Test results from patent US9663488B2, “Metalloenzyme inhibitor compounds” (Viamet Pharmaceuticals, Inc., priority 2013, dated 2017).
Counter-ions that a name gives are not always drawn.

Legend:
LpxC = molecular target: T1, LpxC (Pseudomonas aeruginosa, UniProt P47205); experiment: Inhibition of LpxC Enzyme; assay type: biochemical; conditions: LpxC enzyme is pseudomonas construct
T1 sequence (P47205 1-303): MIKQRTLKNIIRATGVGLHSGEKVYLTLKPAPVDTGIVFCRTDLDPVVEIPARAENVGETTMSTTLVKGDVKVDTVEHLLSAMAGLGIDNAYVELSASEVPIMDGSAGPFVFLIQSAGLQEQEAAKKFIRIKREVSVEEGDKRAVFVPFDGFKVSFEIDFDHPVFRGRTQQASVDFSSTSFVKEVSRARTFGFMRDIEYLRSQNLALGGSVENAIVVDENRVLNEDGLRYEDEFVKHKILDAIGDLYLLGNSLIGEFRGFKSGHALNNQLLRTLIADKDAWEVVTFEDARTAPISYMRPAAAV
Method: [The source words this procedure for another target and reports this target under the same test.] A. Inhibition of LpxC Enzyme
Test compounds were dissolved in 100% DMSO @ 10 mM. Then a series of dilutions were done with 100% DMSO, these were the first intermediate dilutions. Individual 100% DMSO dilutions were diluted independently to another intermediate dilution using assay buffer (bringing the DMSO concentration to 5%). Finally, 10 μl of all these 5% intermediate dilutions were used directly in the 50 μl reaction, making the final DMSO testing concentration at 1%. The enzymatic reactions were conducted in duplicate at room temperature for 1 hour in a 50 μL mixture containing MMP-2 assay buffer, 1 μM Mca-PLGLDpaAR, 10 uL MPP-2 enzyme (1.8 ng) and 10 μL of a test compound. All the reactions were conducted using 10 μl MMP-2 assay buffer in place of enzyme, to detect just the background fluorescence from the compound. After enzymatic reactions, fluorescence intensity was measured at an excitation of 328 nm and an emission of 393 nm using a Tecan Infinite M1000™ microplate reader.

[1] = tested on: Pseudomonas aeruginosa (ATCC 27853); experiment: Minimum Inhibitory Concentration (MIC), CLSI broth microdilution; assay type: cell-based; conditions: ATCC27853, 35±1° C., 18±2 h, concentration which completely inhibited growth
Method: A. Minimum Inhibitory Concentration (MIC)
Minimum Inhibitory Concentrations (MICS) were determined for Escherichia coli (American Type Culture Collection (ATCC) 25922) and Pseudomonas aeruginosa (ATCC 27853) in accordance with the Clinical and Laboratory Standards Institute (CLSI). Serial, one-half dilutions of compounds were prepared in 96-well dilution blocks in cation-adjusted Mueller-Hinton Broth (MBH)+2% DMSO and transferred to 96-well assay plates in duplicate. Cell suspensions of E. coli and P. aeruginosa were prepared in MHB and added to each well at concentrations of approximately 1.2×10^6 and 3.3×10^6 colony-forming-units per milliliter (cfu/mL), respectively. The inoculated plates were incubated at 35±1° C. for 18±2 h. At the completion of incubation the wells of each plate were evaluated visually for the presence of growth. […] In addition to visual evaluation, optical densities were determined using a Tecan Infinite M200 microplate reader measuring absorbance at 600 nm.

Structure (SMILES)	IC50 (LpxC)	MIC [1]
NNC(=O)c1cc(-c2ccc(-c3ccc(-c4cc(C(=O)N5CCCCC5C(=O)O)on4)cc3)cc2)nc2ccncc12 (racemic) [Example 115, 1-(3-(4′-(4-(hydrazinecarbonyl)-1,6-naphthyridin-2-yl)-[1,1′-biphenyl]-4-yl)isoxazole-5-carbonyl)piperidine-2-carboxylic acid]	8 nM	
CCC(C)C(NC(=O)c1ccc(C#Cc2ccc(-c3cc(C(=O)NN)c4cnccc4n3)cc2)cc1)C(=O)O (racemic) [Example 172, 2-(4-((4-(4-(hydrazinecarbonyl)-1,6-naphthyridin-2-yl)phenyl)ethynyl)benzamido)-3-methylpentanoic acid]	18 nM	
O=C(NO)[C@@H](Cc1ccc2ccccc2c1)NS(=O)(=O)c1ccc2ccccc2c1 [BB-78485]	20 nM	
NNC(=O)c1cc(-c2ccc(-c3ccc(-c4cc(C(=O)N5CCC[C@@H]5C(=O)O)on4)cc3)cc2)nc2ccncc12 [Example 31, (R)-1-(3-(4′-(4-(hydrazinecarbonyl)-1,6-naphthyridin-2-yl)-[1,1′-biphenyl]-4-yl)isoxazole-5-carbonyl)pyrrolidine-2-carboxylic acid hydrochloride]	4 nM	
CS(=O)(=O)NCc1cc(-c2ccc(-c3ccc(-c4cc(C(=O)NN)c5cnccc5n4)cc3)cc2)no1 [Example 35, N-((3-(4′-(4-(hydrazinecarbonyl)-1,6-naphthyridin-2-yl)-[1,1′-biphenyl]-4-yl)isoxazol-5-yl)methyl)methanesulfonamide]	2 nM	
O=C(O)CCCOc1ccc(-c2ccc(-c3cc(N4C(=O)CNC4=S)c4cnccc4n3)cc2)cc1 [Example 83, 4-((4′-(4-(5-oxo-2-thioxoimidazolidin-1-yl)-1,6-naphthyridin-2-yl)-[1,1′-biphenyl]-4-yl)oxy)butanoic acid]	4 nM	
NNC(=O)c1cc(-c2ccc(-c3ccc(OCCNS(=O)(=O)C(F)(F)F)cc3)cc2)nc2ccncc12 [Example 101]	6 nM	
NNC(=O)c1cc(-c2ccc(C#Cc3ccc(NS(=O)(=O)C(F)(F)F)cc3)cc2)nc2ccncc12 [Example 185, 1,1,1-trifluoro-N-(4-((4-(4-(hydrazinecarbonyl)-1,6-naphthyridin-2-yl)phenyl)ethynyl)phenyl)methanesulfonamide]	5 nM	
NNC(=O)c1cc(-c2ccc(C#Cc3ccc(C(=O)N4CCCC[C@H]4C(=O)O)cc3Cl)cc2)nc2ccncc12 [Example 202, (S)-1-(3-chloro-4-((4-(4-(hydrazinecarbonyl)-1,6-naphthyridin-2-yl)phenyl)ethynyl)benzoyl)piperidine-2-carboxylic acid hydrochloride]	2 nM	128 µg/mL
CS(=O)(=O)Nc1cc2nc(-c3ccc(C#Cc4ccc(C(=O)N5CCCC[C@H]5C(=O)O)cc4Cl)cc3)cc(C(=O)NN)c2cn1 [Example 309, (S)-1-(3-chloro-(4-((4-(4-(hydrazinecarbonyl)-7-(methylsulfonamido)-1,6-naphthyridin-2-yl)phenyl)ethynyl)benzoyl)piperidine-2-carboxylic acid hydrochloride]	2 nM	
CS(=O)(=O)Nc1cc2nc(-c3ccc(-c4ccc(-c5cc(CO)on5)cc4)cc3)cc(C(=O)NN)c2cn1 [Example 327, N-(4-(hydrazinecarbonyl)-2-(4′-(5-(hydroxymethyl)isoxazol-3-yl)-[1,1′-biphenyl]-4-yl)-1,6-naphthyridin-7-yl) methanesulfonamide hydrochloride]	5 nM	
NNC(=O)c1cc(-c2ccc(-c3ccc(-c4cc(CO)on4)cc3)cc2)nc2cc(NS(=O)(=O)CC(=O)O)ncc12 [Example 328, 2-(N-(4-(hydrazinecarbonyl)-2-(4′-(5-(hydroxymethyl)isoxazol-3-yl)-[1,1′-biphenyl]-4-yl)-1,6-naphthyridin-7-yl)sulfamoyl)acetic acid hydrochloride]	2 nM	
